Data published in publication PMC9969401, “Discovery of 2-(3-Benzamidopropanamido)thiazole-5-carboxylate Inhibitors of the Kinesin HSET (KIFC1) and the Development of Cellular Target Engagement Probes” (Journal of Medicinal Chemistry, 2023).

Biological target: T1, full-length HSET (FL HSET) (Homo sapiens, UniProt Q9BW19)
T1 construct: 5 nM full-length human N-terminal His-tag HSET; His-tag (N)
T1 sequence (Q9BW19 1-673): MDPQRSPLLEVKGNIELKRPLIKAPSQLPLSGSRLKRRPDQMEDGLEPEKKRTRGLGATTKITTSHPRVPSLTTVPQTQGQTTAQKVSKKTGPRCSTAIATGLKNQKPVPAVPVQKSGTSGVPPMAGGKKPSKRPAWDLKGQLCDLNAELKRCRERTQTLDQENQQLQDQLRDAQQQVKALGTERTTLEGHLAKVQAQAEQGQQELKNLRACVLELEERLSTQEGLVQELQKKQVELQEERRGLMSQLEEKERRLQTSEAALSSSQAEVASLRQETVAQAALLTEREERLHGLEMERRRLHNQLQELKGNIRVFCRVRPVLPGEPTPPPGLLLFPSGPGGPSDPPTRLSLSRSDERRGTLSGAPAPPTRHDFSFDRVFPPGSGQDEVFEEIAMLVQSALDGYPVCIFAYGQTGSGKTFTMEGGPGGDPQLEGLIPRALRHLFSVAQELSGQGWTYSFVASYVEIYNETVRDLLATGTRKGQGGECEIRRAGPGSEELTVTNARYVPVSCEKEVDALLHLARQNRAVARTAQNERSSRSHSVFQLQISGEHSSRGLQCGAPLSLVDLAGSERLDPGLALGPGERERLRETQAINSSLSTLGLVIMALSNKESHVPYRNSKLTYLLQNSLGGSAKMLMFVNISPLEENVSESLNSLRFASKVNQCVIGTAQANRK
Assay: Competitive binding fluorescence polarization assay (displacement of probe 37)
Settings: 400 nM FL HSET, 2.5 nM probe 37; read-out: IC50, displacement of FP probe 37 from FL HSET
Experimental: Steady-state fluorescence polarization binding assays were performed using the fluorescence-tagged probe 37. All assays were performed in a black ProxiPlate-384 Plus plate (PerkinElmer, 6008260) in a 10 μL volume in buffer containing 20 mM HEPES pH 7.5, 200 mM NaCl, 1 mM TCEP, 10 mM MgCl2, 0.1 mM Triton X-100, and 5% glycerol (v/v). Full-length human N-terminal His-tag HSET was used, with a final concentration of 2.5 nM 37 probe. The assays were sealed and incubated in the dark at 25 °C and then the FP signal was read on an EnVision multimode plate reader (PerkinElmer Life Sciences) using excitation at 620 nm and parallel and perpendicular emissions at 688 nm. All data processing was done using Prism (GraphPad Software).
For the competition assays, 100 nL of compound dissolved in DMSO or DMSO alone was added to create 11 pt concentration response curves between 100 and 0.001 μM final concentrations. This assay used 400 nM FL HSET, and the plate was read after 2 h of incubation in the dark at 25 °C. IC50 values were determined as for the ATPase assay using a four-parameter statistical logistic curve fit.

Structure (SMILES): Nc1ncnc2c1ncn2[C@@H]1O[C@H](COP(=O)(O)OP(=O)(O)O)[C@@H](O)[C@H]1O [ADP, adenosine diphosphate]
- IC50: 400 ± 66 nM

Structure (SMILES): Nc1ncnc2c1ncn2[C@@H]1O[C@H](COP(=O)(O)OP(=O)(O)OP(=O)(O)O)[C@@H](O)[C@H]1O [ATP, adenosine 5′-triphosphate]
- IC50: 436 ± 56 nM
